Experimental findings from patent US11098055B2, “Ester ACC inhibitors and uses thereof” (Gilead Apollo, LLC, priority 2015, dated 2021) are described below.

In brackets after ≈: the same amount, converted by molar mass. Bounds are passed on as bounds.

For assay [1], the system named is C. parapsilosis ATCC 22019. Put plainly: Anti-Fungal (Candida) Activity Assay, broth microtiter MIC. The class given is cell-based. As to conditions: Lodderomyces parapsilosis, ATCC22019, 48 h, 3 replicates, MIC read at 48 h. The protocol:
(§1) Compounds of the present invention were evaluated in an Anti-Fungal Activity Assay. An exemplary procedure for the assay, which measures the susceptibility of various Candida species to anti-fungal compounds, follows. Compounds to be tested (including fluconazole and amphotericin B) were dissolved in DMSO to obtain a solution having a concentration of 1 mg/mL. These stock solutions were sterile filtered using a 0.22 um nylon syringe filter, then diluted in sterile water to achieve a final concentration of 128 μg/mL.
(§2) All species were grown from frozen stock by directly plating on to freshly prepared Sabouraud Dextrose agar (BD, Difco) and incubated overnight in ambient air at 35° C. for 24 h. A direct suspension was prepared in RPMI 1640+MOPS (Lonza, Biowhittaker) by taking individual colonies from the overnight cultures using sterile swabs soaked in sterile saline. The concentration of the suspension was determined using pre-determined standard curves. These suspensions were then diluted down to 5×10^3 CFU/mL to achieve a final concentration of 2.5×10^3 CFU/mL once added to the microtiter plate as per CLSI guidelines (M27-A3, Vol. 28 No. 14).
(§3) Broth microtiter MIC challenge plates were prepared following CLSI guidelines (M27-A3, Vol. 28 No. 14). The original CLSI guidelines focused on reading Candida MICs after 48 h of incubation. As reading after only 24 h offers a clear advantage of patient care, QC limits are being established for all drugs at 24 h. That being said there are no known interpretive breakpoints for amphotericin B at 24 h and the current fluconazole interpretive breakpoints are based on a 48 h reading. The MIC for the test compounds were recorded at 48 h. All MIC determinations were achieved by visually comparing the growth found in the antibiotic challenged wells to that of the growth control.

Another assay concerns C. albicans ATCC 90028. The description is as above. The class given is cell-based. As to conditions: ATCC90028, 48 h, 3 replicates, MIC read at 48 h. As for the experimental part: as §1, §2, §3

As to `CCNC(=O)C(C)(C)n1c(=O)c2c(C)c(C(=O)OCC)sc2n(C[C@H](OCCC#N)c2ccccc2OC)c1=O` [Compound I-32, ethyl (R)-1-(2-(2-cyanoethoxy)-2-(2-methoxyphenyl)ethyl)-3-(1-(ethylamino)-2-methyl-1-oxopropan-2-yl)-5-methyl-2,4-dioxo-1,2,3,4-tetrahydrothieno[2,3-d]pyrimidine-6-carboxylate], the MIC (in general, the smallest concentration in the dilution series that meets the test's criterion for growth inhibition) in assay [1] (Table 3b (additional results)) is greater than 4.1 µg/mL; in the assay on C. albicans ATCC 90028 (Table 3b (additional results)), 2.1 to 4 µg/mL (≈ 3.68 to 7.01 µM).

`CCOC(=O)c1sc2c(c1C)c(=O)n(C(C)(C)C(N)=O)c(=O)n2C[C@H](OCCOC)c1cc(F)ccc1OC` [Compound I-10, (R)-ethyl 3-(1-amino-2-methyl-1-oxopropan-2-yl)-1-(2-(5-fluoro-2-methoxyphenyl)-2-(2-methoxyethoxy)ethyl)-5-methyl-2,4-dioxo-1,2,3,4-tetrahydrothieno[2,3-d]pyrimidine-6-carboxylate]: the MIC was greater than 4.1 µg/mL in assay [1] (Table 3a), 2.1 to 4 µg/mL (≈ 3.71 to 7.07 µM) in assay [1] (Table 3b (additional results)), greater than 4.1 µg/mL in the assay on C. albicans ATCC 90028 (Table 3a) and 2.1 to 4 µg/mL (≈ 3.71 to 7.07 µM) in the assay on C. albicans ATCC 90028 (Table 3b (additional results)).

For the compound `CCOC(=O)c1sc2c(c1C)c(=O)n(C(C)(C)C(=O)NC(C)C)c(=O)n2CCc1cc(F)ccc1OC` [Compound I-40, ethyl 1-(5-fluoro-2-methoxyphenethyl)-3-(1-(isopropylamino)-2-methyl-1-oxopropan-2-yl)-5-methyl-2,4-dioxo-1,2,3,4-tetrahydrothieno[2,3-d]pyrimidine-6-carboxylate], the figures for the MIC (in assay [1] (Table 3b (additional results)); against C. albicans ATCC 90028 (Table 3b (additional results))) were 0.25 to 1 µg/mL (≈ 0.468 to 1.87 µM) and 2.1 to 4 µg/mL (≈ 3.94 to 7.5 µM), respectively.

On to `CCOC(=O)c1sc2c(c1C)c(=O)n([C@H](C)C(N)=O)c(=O)n2C[C@H](OCCC#N)c1cc(F)ccc1OC` [Compound I-26, ethyl 3-((R)-1-amino-1-oxopropan-2-yl)-1-((R)-2-(2-cyanoethoxy)-2-(5-fluoro-2-methoxyphenyl)ethyl)-5-methyl-2,4-dioxo-1,2,3,4-tetrahydrothieno[2,3-d]pyrimidine-6-carboxylate], for which the MIC in assay [1] (Table 3b (additional results)) is greater than 4.1 µg/mL; in the assay on C. albicans ATCC 90028 (Table 3b (additional results)), 2.1 to 4 µg/mL (≈ 3.84 to 7.32 µM).

`CCOC(=O)c1sc2c(c1C)c(=O)n(C(C)(C)C(=O)N1CCCC1)c(=O)n2C[C@H](O)c1cc(F)ccc1OC` [Compound I-22, (R)-ethyl 1-(2-(5-fluoro-2-methoxyphenyl)-2-hydroxyethyl)-5-methyl-3-(2-methyl-1-oxo-1-(pyrrolidin-1-yl)propan-2-yl)-2,4-dioxo-1,2,3,4-tetrahydrothieno[2,3-d]pyrimidine-6-carboxylate]: the MIC was in the range of 0.25 to 1 µg/mL (≈ 0.445 to 1.78 µM) in assay [1] (Table 3b (additional results)) and 2.1 to 4 µg/mL (≈ 3.74 to 7.12 µM) against C. albicans ATCC 90028 (Table 3b (additional results)).

For `CCNC(=O)[C@H](C)n1c(=O)c2c(C)c(C(=O)OCC)sc2n(C[C@H](OCCC#N)c2cc(F)ccc2OC)c1=O` [Compound I-42, ethyl 1-((R)-2-(2-cyanoethoxy)-2-(5-fluoro-2-methoxyphenyl)ethyl)-3-((S)-1-(ethylamino)-1-oxopropan-2-yl)-5-methyl-2,4-dioxo-1,2,3,4-tetrahydrothieno[2,3-d]pyrimidine-6-carboxylate], the MIC (in assay [1] (Table 3b (additional results)); in the assay with C. albicans ATCC 90028 (Table 3b (additional results))) was 2.1 to 4 µg/mL (≈ 3.65 to 6.96 µM) each time.

For the compound `CCOC(=O)c1sc2c(c1C)c(=O)n(C(C)(C)C(=O)NC(C)C)c(=O)n2C[C@H](OC[C@H](C)C#N)c1cc(F)ccc1OC` [Compound I-34, ethyl 1-((R)-2-((R)-2-cyanopropoxy)-2-(5-fluoro-2-methoxyphenyl)ethyl)-3-(1-(isopropylamino)-2-methyl-1-oxopropan-2-yl)-5-methyl-2,4-dioxo-1,2,3,4-tetrahydrothieno[2,3-d]pyrimidine-6-carboxylate], the MIC lay within 2.1 to 4 µg/mL (≈ 3.41 to 6.49 µM) in assay [1] (Table 3b (additional results)) and 0.25 to 1 µg/mL (≈ 0.405 to 1.62 µM) against C. albicans ATCC 90028 (Table 3b (additional results)).

With `CCOC(=O)c1sc2c(c1C)c(=O)n([C@@H](C)C(=O)NC(C)C)c(=O)n2C[C@H](OCCC#N)c1cc(F)ccc1OC` [Compound I-20, ethyl 1-((R)-2-(2-cyanoethoxy)-2-(5-fluoro-2-methoxy-phenyl)ethyl)-3-((S)-1-(isopropylamino)-1-oxopropan-2-yl)-5-methyl-2,4-dioxo-1,2,3,4-tetrahydrothieno[2,3-d]pyrimidine-6-carboxylate], the MIC (in assay [1] (Table 3b (additional results)); against C. albicans ATCC 90028 (Table 3b (additional results))) was 2.1 to 4 µg/mL (≈ 3.57 to 6.8 µM) in each case.

As to `CCNC(=O)C(C)(C)n1c(=O)c2c(C)c(C(=O)OCC)sc2n(C[C@H](O)c2cc(F)ccc2OC)c1=O` [Compound I-39, ethyl (R)-3-(1-(ethylamino)-2-methyl-1-oxopropan-2-yl)-1-(2-(5-fluoro-2-methoxyphenyl)-2-hydroxyethyl)-5-methyl-2,4-dioxo-1,2,3,4-tetrahydrothieno[2,3-d]pyrimidine-6-carboxylate], the MIC (in assay [1] (Table 3b (additional results)); in the assay on C. albicans ATCC 90028 (Table 3b (additional results))) was 2.1 to 4 µg/mL (≈ 3.92 to 7.47 µM) each time.

Regarding `CCOC(=O)c1sc2c(c1C)c(=O)n([C@@H](C)C(N)=O)c(=O)n2C[C@H](OCCC#N)c1cc(F)ccc1OC` [Compound I-25, ethyl 3-((S)-1-amino-1-oxopropan-2-yl)-1-((R)-2-(2-cyanoethoxy)-2-(5-fluoro-2-methoxyphenyl)ethyl)-5-methyl-2,4-dioxo-1,2,3,4-tetrahydrothieno[2,3-d]pyrimidine-6-carboxylate], the MIC (in assay [1] (Table 3b (additional results)); with C. albicans ATCC 90028 (Table 3b (additional results))) was 2.1 to 4 µg/mL (≈ 3.84 to 7.32 µM) in each case.

For the compound `CCNC(=O)C(C)(C)n1c(=O)c2c(C)c(C(=O)OCC)sc2n(C[C@H](OC(C)C)c2ccccc2OC)c1=O` [Compound I-4, (R)-ethyl 3-(1-(ethylamino)-2-methyl-1-oxopropan-2-yl)-1-(2-isopropoxy-2-(2-methoxyphenyl)ethyl)-5-methyl-2,4-dioxo-1,2,3,4-tetrahydrothieno[2,3-d]pyrimidine-6-carboxylate], the MIC in assay [1] (Table 3a) was greater than 4.1 µg/mL; in assay [1] (Table 3b (additional results)) it was 2.1 to 4 µg/mL (≈ 3.75 to 7.15 µM); with C. albicans ATCC 90028 (Table 3a), 2.1 to 4 µg/mL (≈ 3.75 to 7.15 µM); with C. albicans ATCC 90028 (Table 3b (additional results)), 2.1 to 4 µg/mL (≈ 3.75 to 7.15 µM).

As to `CCOC(=O)c1sc2c(c1C)c(=O)n(C(C)(C)C(=O)NC(C)C)c(=O)n2C[C@H](OCC(C)(C)C#N)c1cc(F)ccc1OC` [Compound I-37, ethyl (R)-1-(2-(2-cyano-2-methylpropoxy)-2-(5-fluoro-2-methoxyphenyl)ethyl)-3-(1-(isopropylamino)-2-methyl-1-oxopropan-2-yl)-5-methyl-2,4-dioxo-1,2,3,4-tetrahydrothieno[2,3-d]pyrimidine-6-carboxylate], the MIC in assay [1] (Table 3b (additional results)) lay within 2.1 to 4 µg/mL (≈ 3.33 to 6.34 µM); in the assay on C. albicans ATCC 90028 (Table 3b (additional results)) it was 0.25 to 1 µg/mL (≈ 0.396 to 1.59 µM).

Regarding `CCOC(=O)c1sc2c(c1C)c(=O)n(C(C)(C)C(=O)NC(C)C)c(=O)n2C[C@H](OC[C@@H](C)C#N)c1cc(F)ccc1OC` [Compound I-35, ethyl 1-((R)-2-((S)-2-cyanopropoxy)-2-(5-fluoro-2-methoxyphenyl)ethyl)-3-(1-(isopropylamino)-2-methyl-1-oxopropan-2-yl)-5-methyl-2,4-dioxo-1,2,3,4-tetrahydrothieno[2,3-d]pyrimidine-6-carboxylate], the MIC (in assay [1] (Table 3b (additional results)); with C. albicans ATCC 90028 (Table 3b (additional results))) was 0.25 to 1 µg/mL (≈ 0.405 to 1.62 µM) throughout.

`CCOC(=O)c1sc2c(c1C)c(=O)n(C(C)(C)C(=O)NC(C)C)c(=O)n2C[C@H](OCCS(C)(=O)=O)c1cc(F)ccc1OC` [Compound I-36, ethyl (R)-1-(2-(5-fluoro-2-methoxyphenyl)-2-(2-(methylsulfonyl)ethoxy)ethyl)-3-(1-(isopropylamino)-2-methyl-1-oxopropan-2-yl)-5-methyl-2,4-dioxo-1,2,3,4-tetrahydrothieno[2,3-d]pyrimidine-6-carboxylate]: the results for the MIC (in assay [1] (Table 3b (additional results)); in the assay with C. albicans ATCC 90028 (Table 3b (additional results))) were 2.1 to 4 µg/mL (≈ 3.2 to 6.1 µM) and 0.25 to 1 µg/mL (≈ 0.381 to 1.52 µM), respectively.
